In paper PMC4349960, “[^18F]FE@SUPPY: a suitable PET tracer for the adenosine A3 receptor? An in vivo study in rodents” (European Journal of Nuclear Medicine and Molecular Imaging, 2015):

Target: T1, A3R (Rattus norvegicus, UniProt P28647)
T1 construct: Adult male Sprague-Dawley rats; from tissue; host or cells: living Sprague-Dawley rats, brain volume of interest in PET
T1 sequence (P28647 1-320): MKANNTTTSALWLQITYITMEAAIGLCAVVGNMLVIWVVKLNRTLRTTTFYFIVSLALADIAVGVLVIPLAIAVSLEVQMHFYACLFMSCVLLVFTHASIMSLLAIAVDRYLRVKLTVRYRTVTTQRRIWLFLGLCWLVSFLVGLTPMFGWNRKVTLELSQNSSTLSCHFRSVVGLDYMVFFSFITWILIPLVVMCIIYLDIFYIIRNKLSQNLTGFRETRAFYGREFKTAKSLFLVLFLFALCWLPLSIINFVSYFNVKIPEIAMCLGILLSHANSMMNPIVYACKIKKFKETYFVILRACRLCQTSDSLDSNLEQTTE
Assay: Small-animal PET in rats: baseline and A3R blocking scans
Type: in vivo
Conditions: baseline PET, 60 min
Excerpt: A microPET Focus220 scanner (Siemens, Medical Solutions) was used for the experiments. It has 168 detector modules providing a 7.6-cm axial and 22-cm transaxial field of view. The resolution of the reconstructed images (filtered back projection) was 1.3 mm (full-width at half-maximum) in the central field of view and remained under 2 mm within the central 5 cm diameter field of view. For PET imaging two groups of animals (rats and xenografted mice) were investigated. Rats were divided into four groups. The first group received vehicle (dimethyl sulphoxide, DMSO) intravenously via a lateral tail vein 30 min prior to radiotracer administration (three animals, 14.3 – 70.1 MBq, 0.2604 ± 0.06 μg). The second group received MRS1523 – a selective A3R antagonist – at a dose of 2 mg/kg body weight (dissolved in DMSO, 4 mg/mL) intravenously via a tail vein 30 min prior to radiotracer administration (three animals, 18.8 – 59.1 MBq, 0.3443 ± 0.05 μg). The third group received unlabelled title compound FE@SUPPY (dissolved in DMSO, 4 mg/mL) at a dose of 2 mg/kg 30 min before tracer administration (three animals, 9.7 – 16.1 MBq, 0.3926 ± 0.04 μg). In the final study group, the effect of P-glycoprotein inhibition was assessed by intravenous administration of 15 mg/kg TQD (freshly dissolved on each experimental day in 2.5 % aqueous dextrose solution and injected intravenously via a tail vein at a volume of 3 mL/kg over 1 min) 60 min prior to tracer administration (three animals, 13.9 – 26.8 MBq, 0.7451 ± 0.11 μg).
Anaesthetized animals were positioned in the imaging chamber of the microPET scanner, which was kept at 38 °C throughout the experiment. A stereotactic holder attached to the bed, consisting of ear plugs and a tooth bar, was used to fix the animal's head to ensure a reproducible position during the PET studies. [^18F]FE@SUPPY (27.91 ± 13.82 MBq) dissolved in 0.48 ± 0.22 mL phosphate-buffered saline (pH 7.4) was administered as a bolus via a tail vein. Dynamic PET imaging was performed over 60 min in all animals. At the end of the PET scan the animals were killed, a terminal blood sample was collected and whole brains were removed for testing of metabolite stability.
For all PET scans (rats and xenografted mice), list mode data were acquired with an energy window of 350 – 750 keV (rats) or 250 – 750 keV (mice) and a 6-ns timing window. Before each PET scan, a transmission scan using a ^57Co point source was recorded over 10 min. The PET data from the 60-min dynamic scans were sorted into three-dimensional sinograms according to the following frame sequence: 6 × 20 s, 5 × 60 s, 4 × 120 s, 3 × 300 s and 3 × 600 s. For the 90-min scans (in the xenografted mice) the following frame sequence was used: 8 × 5 s, 2 × 10 s, 2 × 30 s, 3 × 60 s, 2 × 150 s, 2 × 300 s, 4 × 600 s and 2 × 900 s. PET images were reconstructed by Fourier rebinning followed by filtered back projection with a ramp filter. The resulting voxel size was 0.6 × 0.6 × 0.8 mm for rats or 0.4 × 0.4 × 0.8 mm for mice. The standard data correction protocol (normalization, attenuation and decay correction) was applied to the data. A calibration factor for converting units of microPET images into absolute radioactivity concentration units was first generated by imaging a phantom filled with a known concentration of [^18F]FDG.
Rat brains were manually outlined on multiple planes of the PET summation images using the image analysis software PMOD 3.1 (Pmod Ltd, Zürich, Switzerland) or Amide. Volumes of interest in the brain or solid tissue mass (xenografts) were transferred to the PET images of the individual time frames and time–activity curves (TACs) expressed in units of kilobecquerels per millilitre were calculated. To facilitate comparison of TACs of different animals, radioactivity concentrations were normalized to dose and weight and expressed as standardized uptake value (SUV, %ID/cm^3 or %ID/g). […]

tracer uptake in fat-rich regions (harderian and lacrimal glands): high uptake
tracer uptake in the brain: low uptake
Compound: CCSC(=O)c1c(CC)nc(-c2ccccc2)c(C(=O)OCC[18F])c1CC [[^18F]FE@SUPPY, 5-(2-[^18F]fluoroethyl)-2,4-diethyl-3-(ethylsulfanylcarbonyl)-6-phenylpyridine-5-carboxylate]
